Measured values from patent US9243278B2, “Mechanotransduction by the synergistic action of heterotypic cell interactions” (Brown University, priority 2011, dated 2016).

Tests used:
[1] = tested on: rat hepatocyte cell line (H35); assay: toroid-on-cone cell power assay, homotypic H35 toroids; type: cell-based
Procedure: (§1) Toroid molds suitable for side view microcopy were designed as previously described (9). Toroid molds were designed using the computer aided design (CAD) software Solid Works (Solid Works Corporation, Concord, Mass., USA). The mold was designed with 12 features to create wells. Each feature is a rounded edged (350 μm in diameter) cylinder (1.1 mm) with a cone indent in the center. The slope of the central cone was 65° and it is 650 μm in diameter. CAD files were used to produce thermowax molds with a rapid prototyping machine (3D Systems Corporation, Valencia, Calif.).
(§2) Wax molds were used to cast 13% polyacrylamide gels. Gels were removed from wax molds and transferred to six well culture plates. Each of the resulting wells is a circular trough confined by the hydrogel wall at the outer edge of the trough and by a conical peg on the inner edge of the trough. The gels were rinsed with fresh culture medium and then equilibrated overnight at 37° C. in 4 ml of DMEM supplemented with 1% penicillin/streptomycin (pen/strep). After equilibration, the medium was removed, and the gels were rinsed with fresh medium.
(§3) NHFs (passage 4-10), derived from neonatal foreskins, and H35s (passage 5-11) were grown in T-175 flasks in DMEM with 10% FBS and 1% pen/strep at 37° C. and 10% CO2. Cells were removed from flasks using a standard trypsin process. Briefly, cells were exposed to 0.05% trypsin for 10 minutes, quenched with serum containing medium, spun down at 800 rpm for 6 minutes, resuspended in a known volume of medium, and counted using a hemocytometer. Cell solution (70 μl) was added to each hydrogel. After 30 minutes, 4 ml of fresh medium was added to each of the wells. After seeding, images of the samples were taken every 2 hours for about 8 hours. Pure NHF microtissues were seeded with about 10,500, about 21,000, about 25,000 or about 35,000 cells/well. Heterotypic microtissues were seeded at ratios of about 1:1, about 2:3, about 1:4; about 1:6, about 1:10, about 1:16, and about 1:20 (NHF:H35). The seeding per well for heterotypic samples was kept constant at about 21,000 cells/well. For TGF-β1 experiments, NHFs and H35s were incubated for 48 hours in DMEM with 10% FBS, 1% penn/strep and 5 ng/ml human recombinant TGF-β1 (Invitrogen, Carlsbad, Calif., USA), passed according to standard protocol, and seeded at about 21,000 cells/well. NHFs^TGF-β1 coseeded with H35s were seeded in DMEM with 10% FBS, 1% penn/strep without additional TGF-β1.
To investigate the effect of paracrine factors, media from homotypic toroids containing about 10,500 H35s and from homotypic toroids containing about 10,500 NHFs was collected. The conditioned media was seeded about 10,500 NHFs with the media collected from the H35s and also seeded about 10,500 H35s with the media collected from the NHFs. Power was analyzed at four hours since this is the time enhanced power for heterotypic toroids which contained about 10,500 H35s and about 10,500 NHFs (1:1 samples).
Convential view fluorescent and phase images were captured using Carl Zeiss Axio Observer Z1 with an AxioCam Mrm camera (Carl Zeiss MicroImaging, Thornwood, N.Y., USA). To capture side view images, a Mitutoyo FS-110 microscope was modified to lie on its back and a translational stage was added to hold samples. […]
The range of power exerted by increasing numbers of NHFs (>3 fold) in a homotypic environment by seeding the cells into non-adhesive hydrogels with toroid recesses, each with a central cone (65° slope) was measured. […]

[2] = tested on: heterotypic toroids of NHFs and H35s; assay: toroid-on-cone cell power assay, heterotypic NHF:H35 toroids; type: cell-based, human, rat
Procedure: as §1, §2, §3
Convential view fluorescent and phase images were captured using Carl Zeiss Axio Observer Z1 with an AxioCam Mrm camera (Carl Zeiss MicroImaging, Thornwood, N.Y., USA). To capture side view images, a Mitutoyo FS-110 microscope was modified to lie on its back and a translational stage was added to hold samples. Samples were imaged in bright field through the eyepiece of the microscope. ImageJ Software (NIH Rasband, W.S. USA) was used to measure the height of the toroid, the major radius, and the minor radius of the toroid.
The range of power exerted by increasing numbers of NHFs (>3 fold) in a homotypic environment by seeding the cells into non-adhesive hydrogels with toroid recesses, each with a central cone (65° slope) was measured. Cells settled and formed cell-cell adhesions that drove the toroid shaped microtissue up the cone. The power necessary to move the NHF toroid up the cone as P=ΔW/Δt was calculated, where ΔW is work performed against gravity to move a toroid of a known mass to a given height, and Δt is the time over which the work is performed (9). […] Toroid power increased linearly as cell number increased, but power per NHF (cell power) was independent of cell number, with a peak cell power of 0.22±0.02 fJ/hr (2 hrs) and an average cell power (over all time points) of 0.16±0.03 fJ/hr.
The data shown in Table 1 show heterotypic toroids have enhanced power. […]

[3] = H35^TGF-β1 homotypic toroid, 24 hours

transforming growth factor-β1 [TGF-β1]
Toroid Power [1, 3]: 0.45 ± 0.08 pJ/h
cell power [1, 3]: 0.022 ± 0.004 fJ/h
change in H35 power compared to untreated controls ([1]; homotypic H35 toroids treated with TGF-β1): doubled
Toroid Power ([1]; homotypic toroid 100% H35^TGF-β): 0.45 pJ/h
Enhancement in Toroid Power ([1]; homotypic toroid 100% H35^TGF-β versus control): 0.19 pJ/h
H35 has Enhanced Power ([2]; 1:1 (NHF^TGF-β:H35)): 0.11 fJ/hr per H35
NHF has Enhanced Power ([2]; 1:1 (NHF^TGF-β:H35)): 0.58 fJ/hr per NHF
Relative Increase in NHF Cell Power ([2]; 1:1 (NHF^TGF-β:H35)): 2.4x
Measured Toroid Power ([2]; 1:1 (NHF^TGF-β:H35), at time of peak power, NHFs pretreated 48 hours with 5 ng/ml TGF-β1): 6.05 pJ/h
Enhanced Toroid Power ([2]; 1:1 (NHF^TGF-β:H35), measured minus projected): 1.16 pJ/h
Projected Toroid Power ([2]; 1:1 (NHF^TGF-β:H35), power per TGF-β treated NHF x number of NHFs): 4.90 pJ/h
toroid height relative to respective control ([2]; 1:1 NHF^TGF-β1 mixed with untreated H35s): 1.4 times
Enhanced Toroid Power ([2]; 1:10 (NHF^TGF-β:H35)): 4.41 pJ/h
H35 has Enhanced Power ([2]; 1:10 (NHF^TGF-β:H35)): 0.23 fJ/hr per H35
NHF has Enhanced Power ([2]; 1:10 (NHF^TGF-β:H35)): 5.30 fJ/hr per NHF
Projected Toroid Power ([2]; 1:10 (NHF^TGF-β:H35)): 0.89 pJ/h
Relative Increase in NHF Cell Power ([2]; 1:10 (NHF^TGF-β:H35)): 22.1x
Measured Toroid Power ([2]; 1:10 (NHF^TGF-β:H35), peak power, combination of 6 and 8 hours): 5.30 pJ/h
toroid height relative to respective control ([2]; 1:10 NHF^TGF-β1 mixed with untreated H35s): 4.4 times
Enhanced Toroid Power ([2]; 1:20 (NHF^TGF-β:H35)): 3.63 pJ/h
H35 has Enhanced Power ([2]; 1:20 (NHF^TGF-β:H35)): 0.18 fJ/hr per H35
NHF has Enhanced Power ([2]; 1:20 (NHF^TGF-β:H35)): 4.13 fJ/hr per NHF
Projected Toroid Power ([2]; 1:20 (NHF^TGF-β:H35)): 0.47 pJ/h
Relative Increase in NHF Cell Power ([2]; 1:20 (NHF^TGF-β:H35)): 17.2x
Measured Toroid Power ([2]; 1:20 (NHF^TGF-β:H35), at time of peak power): 4.10 pJ/h
toroid height relative to respective control ([2]; 1:20 NHF^TGF-β1 mixed with untreated H35s): 6.3 times
Enhancement in NHF Cell Power ([2]; 5%:95% (NHF^TGF-β:H35)): 4.13 fJ/hr/NHF
Enhancement in Toroid Power ([2]; 5%:95% (NHF^TGF-β:H35)): 3.63 pJ/h
Fold Increase in NHF Cell Power ([2]; 5%:95% (NHF^TGF-β:H35)): 17.2x
Toroid Power ([2]; 5%:95% (NHF^TGF-β:H35)): 4.10 pJ/h
Enhancement in NHF Cell Power ([2]; 10%:90% (NHF^TGF-β:H35)): 5.30 fJ/hr/NHF
Enhancement in Toroid Power ([2]; 10%:90% (NHF^TGF-β:H35)): 4.41 pJ/h
Toroid Power ([2]; 10%:90% (NHF^TGF-β:H35)): 5.30 pJ/h
Fold Increase in NHF Cell Power ([2]; 10%:90% (NHF^TGF-β:H35), effects of TGF-β & hetero environment): 22.1x
Enhancement in NHF Cell Power ([2]; 50%:50% (NHF^TGF-β:H35)): 0.58 fJ/hr/NHF
Enhancement in Toroid Power ([2]; 50%:50% (NHF^TGF-β:H35)): 1.16 pJ/h
Fold Increase in NHF Cell Power ([2]; 50%:50% (NHF^TGF-β:H35)): 2.4x
Toroid Power ([2]; 50%:50% (NHF^TGF-β:H35)): 6.05 pJ/h
total cell power ([2]; NHF^TGF-β1, about 1:10 mix, between four and eight hours): 5.3 ± 1.32 fJ/h
peak cell power ([2]; NHF^TGF-β1, about 1:20 mix): 4.13 ± 1.22 fJ/h
increase in cell power, heterotypic environment and TGF-β1 ([2]; TGF-β1 treated NHFs with untreated H35s, enhanced power distributed to NHFs): 22 ×
increase in cell power, TGF-β1 treatment in conjunction with the heterotypic environment ([2]; compared to untreated NHFs in a homotypic toroid): greater than 22 times
increase in NHF cell power, TGF-β1 treatment combined with heterotypic environment ([2]; compared to untreated NHFs in homotypic toroid, 10% NHFs: 90% H35s): about 22.1 fold
increase of NHF^TGF-β1 cell power in the heterotypic environment ([2]; versus NHF^TGF-β1 in homotypic environment): greater than 11 times
